Consider two molecules from patent US8338468B2, “Microbicidal composition” (ISP Investments Inc., priority 2005, dated 2012).

Common to all, as to test: Synergy test (MIC) in Ringer's Solution
Type in all cases: cell-based

Test [1] concerns Aspergillus niger. The following applies: 30° C., about 10^5 microbes per ml; for MIC: Aspergillus niger. How it is done: (§1) Synergy tests were conducted using microbiological standard methods. Ringer's Solution (Merck, VWR) was used for testing bacteria, yeast and mould species. In jars 100 ml aliquots of sterile Ringer Solution are dosed with the preservatives and a known inoculum of the single test species is added. A control sample containing no preservative is also used to ascertain the biocide effect on the inoculum. The prepared jars were incubated at 30° C. Aliquots are streaked out at regular intervals on specific nutrient agar so that an estimate of kill time can be determined at the same time as effective concentration. TSA (tryptic soy agar) was used for bacteria; MEA (malt extract agar) was used for yeast and moulds. The plates were visually evaluated for microbial growth to determine the MIC after various incubation times at 30° C. The synergy of the combinations of the present invention was determined against four bacteria, Pseudomonas aeruginosa, Escherichia coli, Proteus Mirabilis, and Staphylococcus aureus, a yeast, Candida albicans and two moulds Trichoderma viride and Aspergillus niger. The single micro-organisms were used at a concentration of about 10^5 microbes per ml. these micro-organisms are standard reference organisms and representative of natural contaminants in many consumer and industrial applications. […] In each test first component (A) was MIT and the second component was phenylethylalcohol (B).

In test [2] the test system is Candida albicans. Conditions: 30° C., about 10^5 microbes per ml; for MIC: Candida albicans. How it is done: as §1
The subject of test [3] is Escherichia coli. Conditions: 30° C., about 10^5 microbes per ml; for MIC: Escherichia coli. As for the experimental part: as §1
The subject of test [4] is Proteus Mirabilis. Conditions: 30° C., about 10^5 microbes per ml; for MIC: Proteus mirabilis. As for the experimental part: as §1
Test [5] has as its system Pseudomonas aeruginosa. The following applies: 30° C., about 10^5 microbes per ml; for MIC: Pseudomonas aeruginosa. As for the experimental part:
as §1

In test [6] the test system is Staphylococcus aureus. The following applies: 30° C., about 10^5 microbes per ml; for MIC: Staphylococcus aureus. How it is done: as §1
Test [7] relates to Trichoderma viride. Conditions: 30° C., about 10^5 microbes per ml; for MIC: Trichoderma viride. As for the experimental part: as §1
Where [8] appears, read: MIT alone, Test 1 single, Test 2.1-2.3 parallel samples, read-out: QA, ppm MIT acting alone, which produced an end point (MIC).
The mark [9] stands for this setting: MIT alone, Test 1 single, Test 2.1-2.3 parallel samples.
Where [10] appears, read: phenylethylalcohol alone, read-out: QB, ppm phenylethylalcohol acting alone, which produced an end point (MIC).

Where “and” joins values, the source holds several entries; their conditions need not be identical. Equal entries are not always repeated. Where two headings read alike, the source gives them in different places.

By MIC is commonly meant the smallest concentration in the dilution series that meets the test's criterion for growth inhibition. On to `Cn1sccc1=O` [MIT, 2-methyl-3-isothiazolone], for which the MIC stood at 50 µg/mL in test [1] (setting [8]); 50 µg/mL in test [2] (setting [8]); 25 µg/mL in test [3] (setting [8]); 50 µg/mL in test [4] (setting [8]); 50 µg/mL in test [5] (setting [8]); 75 µg/mL in test [6] (setting [8]). Besides, in test [7] (setting [8]), the MIC came out at 75 µg/mL. For the same molecule, the “QA, ppm MIT acting alone, which produced an end point (MIC)” value in test [3] (setting [9]) is 50 ppm; in test [4] (setting [9]) it was 25 ppm; in test [5] (setting [9]) it was 25 ppm; in test [6] (setting [9]), 50 ppm; in test [7] (setting [9]), 50 ppm.

As to `OCCc1ccccc1` [phenylethylalcohol], the MIC in test [1] (setting [10]) was found to be 1500 µg/mL; in test [2] (setting [10]) it was 2000 µg/mL; in test [3] (setting [10]) it was 2500 µg/mL; in test [4] (setting [10]), 2000 µg/mL; in test [5] (setting [10]), 2000 µg/mL; in test [6] (setting [10]) it was 2000 µg/mL. Also, the MIC in test [7] (setting [10]) amounted to 2000 µg/mL. Also, the “QB, ppm phenylethylalcohol acting alone, which produced an end point (MIC)” value was 2000 ppm in test [1] (phenylethylalcohol alone); 2500 ppm and 1500 ppm in test [2] (phenylethylalcohol alone); 2000 ppm in test [3] (phenylethylalcohol alone); 2500 ppm in test [5] (phenylethylalcohol alone); 1500 ppm in test [6] (phenylethylalcohol alone); 3000 ppm in test [7] (phenylethylalcohol alone).
